Drawing on PubChem BioAssay AID256 (DTP/NCI, 2004), this text covers T/C for 16 compounds.

Molecules are shown by their SMILES. Several values for one entry are separate records, joined by “and”; a condition that tells them apart may be missing. Equal values may be shown once. Toxic doses and inconclusive results are not listed.

The assay relates to CD2F1 mice, L1210 leukemia ip, survival T/C. The assay is described as follows: NCI In Vivo Anticancer Drug Screen. Data for tumor model L1210 Leukemia (intraperitoneal) in CD2F1 (CDF1) mice. To be noted: higher = longer survival. An outline of the steps:
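Transplantable tumor in mice; compound-treated vs vehicle-treated groups. Read-out = treated/control ratio of the measured endpoint.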

Setting [1] is: endpoint: mean survival time, dose: 50.0 mg/kg/injection, schedule: Q01DX009 (ip), vehicle: other.
[2] abbreviates: endpoint: mean survival time, dose: 100.0 mg/kg/injection, schedule: Q01DX009 (ip), vehicle: other.
Setting [3] is: endpoint: mean survival time, dose: 100.0 mg/kg/injection, schedule: Q04DX003 (ip), vehicle: saline with Tween-80.
Setting [4] is: endpoint: mean survival time, dose: 200.0 mg/kg/injection, schedule: Q04DX003 (ip), vehicle: saline with Tween-80.

As for `COC(=O)C1CCN1C(C)C` (configuration not stated), the T/C is 106 % of control (endpoint: mean survival time, dose: 12.5 mg/kg/injection, schedule: Q01DX009 (ip), vehicle: other); 106 % of control (endpoint: mean survival time, dose: 25.0 mg/kg/injection, schedule: Q01DX009 (ip), vehicle: other); 96 % of control under setting [1]; 98 % of control under setting [2]; 98 % of control (endpoint: mean survival time, dose: 200.0 mg/kg/injection, schedule: Q01DX009 (ip), vehicle: other).
On to `CCCCCCCCCCCCCCCCCCOCC(COP(=O)([O-])OCC[N+](C)(C)C)OC` (configuration not stated), for which the T/C reads like this: (endpoint: median survival time, dose: 6.25 mg/kg/injection, schedule: Q01DX009 (ip), vehicle: suspension in saline) 98 % of control; (endpoint: median survival time, dose: 12.5 mg/kg/injection, schedule: Q01DX009 (ip), vehicle: suspension in saline) 93 % of control; (endpoint: median survival time, dose: 25.0 mg/kg/injection, schedule: Q01DX009 (ip), vehicle: suspension in saline) 104 % of control; (endpoint: median survival time, dose: 50.0 mg/kg/injection, schedule: Q01DX009 (ip), vehicle: suspension in saline) 88 % of control.
`CCN(CC)c1ccc(N(C(C)=O)C(C)=O)cc1`: the T/C runs as follows: (endpoint: mean survival time, dose: 6.25 mg/kg/injection, schedule: Q04DX003 (ip), vehicle: saline with Tween-80) 91 % of control; (endpoint: mean survival time, dose: 12.5 mg/kg/injection, schedule: Q04DX003 (ip), vehicle: saline with Tween-80) 95 % of control; (endpoint: mean survival time, dose: 25.0 mg/kg/injection, schedule: Q04DX003 (ip), vehicle: saline with Tween-80) 93 % of control.
As for `Cc1ccnc(NS(=O)(=O)c2ccc(N=Nc3nc4[nH]c(N)nc(=S)c4[nH]3)cc2)n1`, the T/C is, setting by setting: (endpoint: mean survival time, dose: 0.2 mg/kg/injection, schedule: Q01DX009 (ip), vehicle: Klucel (hydroxypropylcellulose) (HPC)) 96 % of control; (endpoint: mean survival time, dose: 0.4 mg/kg/injection, schedule: Q01DX009 (ip), vehicle: Klucel (hydroxypropylcellulose) (HPC)) 106 % of control; (endpoint: mean survival time, dose: 0.8 mg/kg/injection, schedule: Q01DX009 (ip), vehicle: Klucel (hydroxypropylcellulose) (HPC)) 106 % of control; (endpoint: mean survival time, dose: 1.56 mg/kg/injection, schedule: Q01DX009 (ip), vehicle: Klucel (hydroxypropylcellulose) (HPC)) 203 % of control; (endpoint: mean survival time, dose: 1.6 mg/kg/injection, schedule: Q01DX009 (ip), vehicle: Klucel (hydroxypropylcellulose) (HPC)) 117 % of control; (endpoint: mean survival time, dose: 3.13 mg/kg/injection, schedule: Q01DX009 (ip), vehicle: Klucel (hydroxypropylcellulose) (HPC)) 150 % of control. The T/C (endpoint: mean survival time, dose: 6.25 mg/kg/injection, schedule: Q01DX009 (ip), vehicle: Klucel (hydroxypropylcellulose) (HPC)) was 117 % of control.
Take `NC(=O)Oc1cccc(OC(N)=O)c1`: the T/C (endpoint: mean survival time, dose: 25.0 mg/kg/injection, schedule: Q01DX009 (ip), vehicle: water) is 95 % of control; the T/C (endpoint: mean survival time, dose: 50.0 mg/kg/injection, schedule: Q01DX009 (ip), vehicle: water) is 106 % of control; the T/C (endpoint: mean survival time, dose: 100.0 mg/kg/injection, schedule: Q01DX009 (ip), vehicle: water) was 106 % of control; the T/C (endpoint: mean survival time, dose: 200.0 mg/kg/injection, schedule: Q01DX009 (ip), vehicle: water) was 104 % of control; the T/C (endpoint: mean survival time, dose: 400.0 mg/kg/injection, schedule: Q01DX009 (ip), vehicle: water) is 106 % of control.
For `CCCCCCCCCCNC(C1=C(O)c2ccccc2C(=O)C1=O)c1ccccc1` (configuration not stated), the T/C was 107 % of control (endpoint: mean survival time, dose: 6.25 mg/kg/injection, schedule: Q01DX001 (ip), vehicle: saline with Tween-80); 100 % of control (endpoint: mean survival time, dose: 12.5 mg/kg/injection, schedule: Q01DX001 (ip), vehicle: saline with Tween-80); 92 % of control (endpoint: mean survival time, dose: 25.0 mg/kg/injection, schedule: Q01DX001 (ip), vehicle: saline with Tween-80).
With `CCCCCCCCCc1ccc(OCCOCCOCCOCCOCCOCCOCCCS(=O)(=O)[O-])cc1.CCCCCCCCCc1ccc(OCCOCCOCCOCCOCCOCCOCCCS(=O)(=O)[O-])cc1.NC1CCCCC1N.[Pt+4]`, the T/C reads like this: (endpoint: median survival time, dose: 3.12 mg/kg/injection, schedule: Q04DX003 (ip), vehicle: saline with Tween-80) 98 % of control; (endpoint: median survival time, dose: 6.25 mg/kg/injection, schedule: Q04DX003 (ip), vehicle: saline with Tween-80) 98 % of control; (endpoint: median survival time, dose: 12.5 mg/kg/injection, schedule: Q04DX003 (ip), vehicle: saline with Tween-80) 98 % of control; (endpoint: median survival time, dose: 25.0 mg/kg/injection, schedule: Q04DX003 (ip), vehicle: saline with Tween-80) 95 % of control; (endpoint: median survival time, dose: 50.0 mg/kg/injection, schedule: Q04DX003 (ip), vehicle: saline with Tween-80) 97 % of control; (endpoint: median survival time, dose: 100.0 mg/kg/injection, schedule: Q04DX003 (ip), vehicle: saline with Tween-80) 102 % of control. In addition, the T/C (endpoint: median survival time, dose: 200.0 mg/kg/injection, schedule: Q04DX003 (ip), vehicle: saline with Tween-80) is 103 % of control.
In the case of `N#CC1(Nc2ccccc2)CCCCC1`, the T/C is, setting by setting: under setting [1], 95 % of control; under setting [2], 102 % of control; under setting [3], 97 % of control; under setting [4], 100 % of control.
Take `S=C1N(C2CCCCC2)CCN1C1CCCCC1`: the T/C is 108 % of control (endpoint: mean survival time, dose: 25.0 mg/kg/injection, schedule: Q01DX001 (ip), vehicle: Klucel (hydroxypropylcellulose) (HPC)); 108 % of control (endpoint: mean survival time, dose: 50.0 mg/kg/injection, schedule: Q01DX001 (ip), vehicle: Klucel (hydroxypropylcellulose) (HPC)); 103 % of control (endpoint: mean survival time, dose: 100.0 mg/kg/injection, schedule: Q01DX001 (ip), vehicle: Klucel (hydroxypropylcellulose) (HPC)).
Turning to `C[CH2][Sn]([F])([CH2]C)[CH2]C`, the T/C was 98 % of control (endpoint: mean survival time, dose: 0.37 mg/kg/injection, schedule: Q01DX009 (ip), vehicle: saline with Tween-80); 101 % of control (endpoint: mean survival time, dose: 0.75 mg/kg/injection, schedule: Q01DX009 (ip), vehicle: saline with Tween-80); 104 % of control (endpoint: mean survival time, dose: 1.5 mg/kg/injection, schedule: Q01DX009 (ip), vehicle: saline with Tween-80); 102 % of control (endpoint: mean survival time, dose: 3.0 mg/kg/injection, schedule: Q01DX009 (ip), vehicle: saline with Tween-80); 98 % of control (endpoint: mean survival time, dose: 6.0 mg/kg/injection, schedule: Q01DX009 (ip), vehicle: saline with Tween-80).
In the case of `CC(C)(C)N1CC1CNC(=O)C(=O)NCC1CN1C(C)(C)C` (configuration not stated), the T/C was 100 % of control and 102 % of control (endpoint: mean survival time, dose: 0.78 mg/kg/injection, schedule: Q01DX009 (ip), vehicle: saline with Tween-80); 103 % of control and 105 % of control (endpoint: mean survival time, dose: 1.56 mg/kg/injection, schedule: Q01DX009 (ip), vehicle: saline with Tween-80); 114 % of control and 108 % of control (endpoint: mean survival time, dose: 3.12 mg/kg/injection, schedule: Q01DX009 (ip), vehicle: saline with Tween-80); 171 % of control and 201 % of control (endpoint: mean survival time, dose: 12.5 mg/kg/injection, schedule: Q01DX009 (ip), vehicle: saline with Tween-80); 150 % of control (endpoint: mean survival time, dose: 12.5 mg/kg/injection, schedule: Q01DX009 (oral), vehicle: saline with Tween-80); 117 % of control (endpoint: median survival time, dose: 3.13 mg/kg/injection, schedule: Q01DX009 (ip), vehicle: saline with Tween-80). Moreover, the T/C (endpoint: median survival time, dose: 6.25 mg/kg/injection, schedule: Q01DX009 (ip), vehicle: saline with Tween-80) was 158 % of control and 171 % of control; the T/C (endpoint: median survival time, dose: 12.5 mg/kg/injection, schedule: Q01DX009 (ip), vehicle: saline with Tween-80) was 273 % of control and 275 % of control; the T/C (endpoint: median survival time, dose: 25.0 mg/kg/injection, schedule: Q01DX009 (ip), vehicle: saline with Tween-80) was 117 % of control and 98 % of control.
As for `CC(C)(C)c1ccc(-n2cnc3c(=O)[nH]c(N)nc32)cc1`, the T/C is, setting by setting: (endpoint: mean survival time, dose: 50.0 mg/kg/injection, schedule: Q04DX002 (ip), vehicle: saline with Tween-80) 86 % of control; (endpoint: mean survival time, dose: 100.0 mg/kg/injection, schedule: Q04DX002 (ip), vehicle: saline with Tween-80) 90 % of control.
For the compound `O=C(O)CNS(=O)(=O)c1ccccc1`, the T/C reads like this: under setting [3], 98 % of control; under setting [4], 101 % of control; (endpoint: mean survival time, dose: 400.0 mg/kg/injection, schedule: Q04DX003 (ip), vehicle: saline with Tween-80) 93 % of control.
As for `COc1ccc(N2C(N)=NC(N)=NC2(C)C)cc1`, the T/C reads like this: (endpoint: mean survival time, dose: 25.0 mg/kg/injection, schedule: Q04DX002 (ip), vehicle: saline) 106 % of control; (endpoint: mean survival time, dose: 50.0 mg/kg/injection, schedule: Q04DX002 (ip), vehicle: saline) 100 % of control.
With `CC#CC(C)=O`, the T/C runs as follows: (endpoint: mean survival time, dose: 25.0 mg/kg/injection, schedule: Q01DX009 (ip), vehicle: saline) 93 % of control; (endpoint: mean survival time, dose: 50.0 mg/kg/injection, schedule: Q01DX009 (ip), vehicle: saline) 96 % of control; (endpoint: mean survival time, dose: 100.0 mg/kg/injection, schedule: Q01DX009 (ip), vehicle: saline) 97 % of control.
Consider `C=CCN(CC=C)P(=O)(N1CC1C)N1CC1C` (configuration not stated), for which the T/C was 122 % of control (endpoint: mean survival time, dose: 1.0 mg/kg/injection, schedule: Q01DX009 (ip), vehicle: saline) and 115 % of control (endpoint: mean survival time, dose: 2.5 mg/kg/injection, schedule: Q01DX001 (ip), vehicle: saline).
